Experiments:
5-HT1AR [1] = target: T1, 5-HT1AR (Rattus norvegicus, UniProt P19327); assay: [35S]GTPγS functional 5-HT1A assay in rat hippocampal membranes; format: biochemical; conditions: read-out: 5-HT1A Emax (%) ± SEM
T1 construct: from tissue; hippocampus per the main-text methods
T1 sequence (P19327 1-422): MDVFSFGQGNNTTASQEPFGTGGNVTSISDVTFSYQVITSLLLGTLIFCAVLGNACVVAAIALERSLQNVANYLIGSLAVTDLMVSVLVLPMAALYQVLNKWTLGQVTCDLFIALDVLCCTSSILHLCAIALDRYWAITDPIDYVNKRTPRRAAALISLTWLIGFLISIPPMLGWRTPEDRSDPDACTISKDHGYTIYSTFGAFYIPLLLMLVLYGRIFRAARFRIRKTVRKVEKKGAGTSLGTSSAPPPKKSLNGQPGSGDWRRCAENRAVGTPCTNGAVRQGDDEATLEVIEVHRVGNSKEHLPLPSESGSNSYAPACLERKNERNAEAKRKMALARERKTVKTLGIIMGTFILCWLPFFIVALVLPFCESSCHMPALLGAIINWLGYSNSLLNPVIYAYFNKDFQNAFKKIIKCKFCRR
Experimental: (§1) Male Sprague–Dawley rats were decapitated and their brains removed and placed on ice. The hippocampi (for the functional 5-HT1A receptor assay) or frontal cortexes (for the competitive 5-HT2A and 5-HT2C receptor assays) were dissected and homogenized with a glass homogenizer in 30 vol. ice-cold TED buffer (50 mMTris-HCl, 1 mM EDTA, 1 mM dithiotheritol, pH 7.4). Next, the homogenate was centrifuged at 21 000g for 30 min at 4 °C. The pellet was suspended in 30 vol TED buffer (pH 7.4) and incubated in a water bath for 10 min at 37 °C to remove endogenous ligands. The suspension was centrifuged again at 21 000g for 30 min at 4 °C. The pellet was resuspended in 30 vol TED buffer (pH 7.4) and the centrifugation step was repeated. The final pellet was suspended in 10 vol 50 mM Tris-HCl (pH 7.4) and stored at −80 °C until use.[47]
(§2) The [^35S]GTPγS assay was performed according to the method described previously.[49] […] Nonspecific binding was determined with 100 μM of unlabeled GTPγS. The reaction mixture was incubated for 90 min at 36 °C in a volume of 250 μL. […] Next, 96-well Unifilter Plates (PerkinElmer, USA) were presoaked for 1 h with 50 mM Tris-HCl (pH = 7.4) before harvesting. The reaction was terminated by vacuum filtration onto filter plates with the Filter Mate Harvester (PerkinElmer, USA). The samples were then rapidly washed with 2 mL of 50 mM Tris-HCl (pH = 7.4) buffer. The filter plates were dried for 2 h at 50 °C. After drying, 45 μL of EcoScint-20 scintillant (PerkinElmer, USA) was added to every well. The radioactivity was counted in a Trilux MicroBeta^2 counter (PerkinElmer, USA). The data were analyzed with GraphPad Prism 5.0 software (GraphPad Software, San Diego California USA, www.graphpad.com). To determine whether compound-stimulated [^35S]GTPγS binding involved 5-HT1A receptors, two protocols were used.
The curves were fitted with a one-site nonlinear regression model. Efficacy (Emax) and potency (pEC50) were calculated from […] from three separate experiments and expressed as the means ± SEM. […] The differences in compound potency and efficacy were evaluated with one-way ANOVA followed by the Bonferroni’s post-hoc test. The baseline G-protein stimulation was set at 100%. One, two, or three symbols represent statistical significance of 0.05, 0.01, and 0.001, respectively.

[2] = test system: superficial dorsal horn neurons (lamina I–II); assay: Patch-clamp recording from spinal cord slices; format: cell-based, mouse
Experimental: The Italian Ministry of Health approved all the experiments that were conducted on postnatal CD1 mice (P18–P25) in accordance with the Guide for the Care and Use of Laboratory Animals and the EU and Italian regulations on animal welfare. The spinal cord slices were obtained following the procedure described previously.[69],[70] Briefly, the animals were anesthetized with isoflurane and decapitated, the spinal cord and vertebrae were rapidly removed and placed in ice-cold dissecting Krebs’ solution (composition in mM:125 NaCl, 2.5 KCl, 1.25 NaH2PO4, 26 NaHCO3, 25 glucose, 6 MgCl2, 1.5 CaCl2, and 1 kynurenic acid, pH 7.4, 320 mOsm), bubbled with 95% O2, 5% CO2. The lumbar spinal cord was isolated, embedded in an agarose block (low melting point agarose 3%, Thermo Fisher Scientific, Waltham, USA), and transverse slices (500 μm thick) were obtained using a vibrating microtome (WPI, Sarasota, USA). The slices were incubated in oxygenated incubation Krebs’ solution (the same as dissecting but without kynurenic acid) at 35 °C for 30 min and used for recording. The Patch-clamp recording in whole-cell configuration was performed on lamina I–II neurons at room temperature. The slices were perfused at 2 mL/min with recording Krebs’solution (in mM: 125 NaCl, 2.5 KCl, 1.25 NaH2PO4, 26 NaHCO3, 25 glucose, 1 MgCl2, and 2 CaCl2, pH 7.4, 320 mOsm). Recordings of post-synaptic currents (EPSCs) were performed in voltage clamp, by using an intracellular solution with the following composition (in mM): 120 potassium methanesulfonate, 10 NaCl, 10 EGTA, 1 CaCl2, 10 HEPES, 5 ATP-Mg, pH adjusted to 7.2 with KOH, osmolarity 300 mOsm. 8-OH-DPAT was obtained from Sigma-Aldrich (Saint Louis, USA). The data were recorded and acquired using a Multiclamp 700A amplifier and the pClamp 10 software (Molecular Devices, Sunnyvale, USA). The sampling rate was 10 kHz, and the data were filtered at 2 kHz. The data were analyzed off-line using pClamp10 software and Minianalysis (Synaptosoft, USA). The data are expressed as the mean ± SEM and differences were considered significant for p < 0.05. The statistical significance for the effect on EPSC frequency was determined using the Kolmogorov–Smirnov test on individual neurons.

5-HT1AR [3] = target: T1, 5-HT1AR; assay: Effect of WAY100635 on compound-stimulated [35S]GTPγS binding (Tables SI-1, SI-2); format: biochemical
Experimental: as §2, with “used. […]” for “used.”
WAY).) Results were expressed as means ± SEM. Curves were fitted with a one-site sigmoidal dose-response equation […]
calculated as the ratio of pEC50 in the presence of WAY100635 divided by the pEC50 of agonist alone. Basal 5-HT1AR activation was set to 100%. Results were analyzed with one-way ANOVA followed by the Bonferroni’s post-hoc test. […]
WAY100635 (10^-10 M - 10^-5 M, WAY). Results were expressed as means ± SEM. Curves were fitted with a one-site sigmoidal dose-response equation and Emax (%) of the EC80 agonist concentration alone and in the presence of WAY100635 were determined from 2 independent experiments. Basal (no ligand added) [35S]GTPγS binding was set to 100%. Results were analyzed with one-way ANOVA followed by the Bonferroni’s post-hoc test.

Male Swiss CB1 mice = assay: Formalin test; format: in vivo, mouse
Experimental: Male Swiss CB1 mice (Envigo, S. Pietro al Natisone (UD)) weighing 25–30 g were used. The animals were kept at a constant room temperature (25 ± 1 °C) under a 12:12 h light and dark cycle, with free access to food and water. Each mouse was used for only one experiment. […] All the tests were performed blind to treatment.
The formalin (5%, 10 μL; Sigma-Aldrich) was injected subcutaneously into the plantar side of the right hind paw.[68] After injection, the mice were immediately placed in a plexiglas box: the total time (in seconds) spent on licking or biting the injected hind paw was recorded every 5 min at selected intervals, 0–10 (phase I) and 10–60 (phase II) min, in the different experimental groups, as an indicator of nociceptive behavior. […] A mean response was then calculated for each phase. […] A vehicle solution containing 10% DMSO was given as a control. Morphine was used as positive control. The test compound and vehicle were […] (i.p.) administered (5 mL/kg) 15 min before the formalin. […] The data are expressed as mean values (SEM). Analyses of variance (two-way repeated measures ANOVA followed by post hoc Bonferroni test) were performed to assess significance using the Instat 3.0 software (GraphPad Software, San Diego, CA). p < 0.05 was considered significant.

5-HT2CR = target: T2, 5-HT2CR (Rattus norvegicus, UniProt P08909); assay: Radioligand binding at 5-HT2C on rat frontal cortex membranes; conditions: rat frontal cortex membranes; [3H]mesulergine
T2 construct: from tissue; host or cells: frontal cortex of male Sprague-Dawley rats
T2 sequence (P08909 33-460): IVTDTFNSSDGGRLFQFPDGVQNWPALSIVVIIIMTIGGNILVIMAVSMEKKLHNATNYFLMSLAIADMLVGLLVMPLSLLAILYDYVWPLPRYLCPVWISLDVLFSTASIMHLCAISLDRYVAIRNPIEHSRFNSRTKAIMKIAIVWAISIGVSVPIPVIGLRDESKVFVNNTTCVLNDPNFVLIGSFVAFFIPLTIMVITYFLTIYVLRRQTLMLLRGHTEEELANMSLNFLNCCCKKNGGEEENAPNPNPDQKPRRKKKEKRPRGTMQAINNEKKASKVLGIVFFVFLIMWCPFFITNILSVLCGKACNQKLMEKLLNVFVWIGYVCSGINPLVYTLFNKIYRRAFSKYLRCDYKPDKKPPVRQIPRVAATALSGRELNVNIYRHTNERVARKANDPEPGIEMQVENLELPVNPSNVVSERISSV
Experimental: as §1
The 5-HT2A assay was performed according to a previously described protocol with some modifications.[48] […] Nonspecific binding was determined in the presence of 10 μM mianserin. For the 5-HT2C assay, the frontal cortex homogenates (250 μg protein/mL) were incubated in triplicate with 1 nM [^3H]mesulergine for 60 min at 36 °C in a 50 mM Tris-HCl (pH 7.4) buffer containing 0.1% ascorbate, 10 mM MgCl2, 10 μM pargyline, 100 nM spiperone, and increasing concentrations (10^–10–10^–5 M) of the compound tested. After incubation, the reaction mixture was deposited onto UniFilter-96 GF/B plates, with the aid of a FilterMate-96 Harvester. The filter plates were presoaked with 0.4% PEI for 1 h. Next, each filter well was washed with 1.75 mL of 50 mM Tris-HCl (pH 7.4) and left to dry on a heating block set to 50 °C for 2 h. Then, 45 μL of Microscint-20 scintillation fluid was added to each filter well and left to equilibrate overnight. The filter-bound radioactivity was counted in a MicroBeta^2 Microplate Counter. Curves were fitted with a one-site sigmoidal dose–response equation and pKi for each compound was calculated with the Cheng-Pursoff equation. Results were analyzed with one-way ANOVA followed by the Bonferroni’s posthoc test. The results are expressed as means ± SEM of three independent experiments.

Structure (SMILES): CCCN(CCC)C1CCc2cccc(O)c2C1 (stereo not drawn) [8-OH-DPAT, reference compound]
- Emax (5-HT1AR [1]): 152 ± 2.4%
- neurons showing sEPSC frequency decrease ([2]; 10 μM): 4 out of 11
- neurons showing slow outward current ([2]; bath application 10 μM, voltage clamp −60 mV): 6 out of the 11
- Emax (5-HT1AR [3]; read-out: Emax (%) ± SEM of EC80 agonist concentration alone): 142 ± 19.4%
- Emax (5-HT1AR [3]; read-out: Emax (%) ± SEM, compound alone): 152 ± 2.4%

Structure (SMILES): CN1CC[C@]23c4c5ccc(O)c4O[C@H]2[C@@H](O)C=C[C@H]3[C@H]1C5 [Morphine, reference compound]
- analgesic effect in first and second phases of the formalin test (Male Swiss CB1 mice; 10 mg/kg i.p., formalin 5% 10 μL intraplantar): essentially eliminated the response to formalin

Structure (SMILES): COc1cc(OC)c(C(=O)CCCCN2CCC3(CC2)NC(=O)NC3=O)cc1NS(=O)(=O)c1ccc(C(F)(F)F)cc1 [RS-102221, reference compound]
- 5-HT2C pKi ± SEM (5-HT2CR): 8.34 ± 0.12

Structure (SMILES): COc1ccccc1N1CCN(CCN(C(=O)C2CCCCC2)c2ccccn2)CC1 [WAY-100635, reference compound]
- licking response after formalin, per se (Male Swiss CB1 mice; 3 mg/kg i.p.): did not alter the licking response

Structure (SMILES): NCCc1c[nH]c2ccc(O)cc12 [serotonin, reference compound]
- Emax (5-HT1AR [1]; rat hippocampal membranes, basal 5-HT1AR activation set to 100%): 192 ± 4.9%

— article PMC8016166, “Identification of a Potent and Selective 5-HT1A Receptor Agonist with In Vitro and In Vivo Antinociceptive Activity” (ACS Chemical Neuroscience, 2020)
